Experiments:
BJA-B K20 cells [1] = assay: Feeding of free sialic acids to BJA-B K20 cells, PToV probes, flow cytometry; assay type: cell-based, human
human CD22-Fc/Siglec-2 = assay: Feeding of free sialic acids to BJA-B K20 cells, probing with human CD22-Fc, flow cytometry; assay type: cell-based; details: 3 mM, 3 days of feeding
Protocol: Cell Culture and Sugar Supplementation.
Flow Cytometry. Cells were washed with PBS and incubated with 10 μg/mL of PToV probes in PBS with 1% BSA and 10 mM EDTA for 30 minutes on ice. Subsequently, cells were washed with PBS and incubated with PE goat anti-human IgG antibody for 30 minutes on ice. After an additional washing step, the cells were analyzed by FACSCalibur (BD).
After 3 days of feeding, BJA-B K20 cells were probed with human CD22-Fc/Siglec-2 to detect ligands (FIG. 7). […] However, when the cells were grown in the presence of Neu5Ac9NAc, the expression of the CD22 ligand was minimal (FIG. 7C). […] This supports previous observations that human CD22-Fc recognizes α2-6-linked sialosides with Neu5Ac or N-glycolylneuraminic acid (Neu5Gc) as the preferred naturally existing sialic acid form and 9-O-acetyl modification on sialic acid blocks the binding.

BJA-B K20 cells [2] = assay: Feeding of free sialic acids to BJA-B K20 cells, DMB derivatization and HPLC of membrane sialic acids; details: 1 mM for 3 days; sialic acids released with Vibrio cholerae neuraminidase
[3] = De-O-acetylation of 9-OAc glycan during glycan microarray process (DMB derivatization, HPLC); assay type: physicochemical
[4] = tested on: human Siglec-9-Fc (hSiglec-9); assay: Sialoglycan microarray binding of human Siglec-9-Fc; details: without esterase treatment (FIG. 3A)
Protocol: The synthesized glycan Neu5Ac9NAcα3Galβ4GlcβProNH2 was used in a glycan library for glycan microarray studies. Glycan microarrays were fabricated using epoxide-derivatized slides (Corning by Thermo Fisher Scientific) and Arrayit SpotBot® Extreme Microarray Spotter. The arrays were printed with Stealth SMP3 microarray spotting pins from ArrayIt (Sunnyvale, CA, USA) generating 100 μm diameter spots. 4 pins were used; with each pin printing 4 replicate spots/well. The glycoconjugates were prepared at 100 μM concentration in an optimized printing buffer (300 mM phosphate buffer, pH 8.4). They were then distributed into a 384-well source plate in 20 μL per well. To monitor printing quality, 4 replicate-wells of human IgG (Jackson ImmunoResearch) was used at 100 μg/ml (in PBS) for each printing-pin. One complete array was printed on each slide (within approx 12 hour/˜28 slides). The humidity level in the arraying chamber was maintained at about 60-65% during printing. Printed slides were left on spotter deck overnight, allowing humidity to drop to ambient levels. Printed glycan microarray slides were blocked by 50° C. pre-warmed blocking solution (0.1 M Tris-HCl, 0.05 M ethanolamine, pH 9.0, 1 h). They were then washed twice with 50° C. pre-warmed water and dried. Slides were packed, vacuum-sealed and stored at RT until used.
(§1) To assure the quality of the printed slides, one or two slides were used for quality control using antibodies, lectins and serum samples with known glycan binding specificity. For glycan array binding, slides were fitted in a multi-well microarray hybridization cassette (AHC4X8S, ArrayIt, Sunnyvale, CA, USA) to divide into 8 subarrays. The subarrays were blocked with Ovalbumin (1% w/v) in PBS (pH 7.4) for 1 h at RT, with gentle shaking. […] The data were further analyzed with Excel. […] The binding specificity to glycoconjugates for each protein was plotted based on the RFU (Relative Fluorescence Units), average fluorescence value for 4 replicates, versus glycan IDs. The standard deviations were calculated and the error bars were found for each glycan binding. […]

[5] = tested on: porcine torovirus hemagglutinin-esterase (PToV-P4-Fc, esterase inactivated); assay: Sialoglycan microarray binding of PToV-P4-Fc (esterase inactive); details: without esterase treatment (FIG. 3A)
[6] = tested on: PToV-P4-Fc (esterase active); assay: Treatment of glycan microarray with esterase active PToV, then probe binding; assay type: biochemical, porcine torovirus; details: 20 μg/mL PToV-P4-Fc (esterase active), 2 h, RT; FIG. 3B vs FIG. 3A
Protocol: as §1, with “shaking. For the esterase activity studies on the array, after removing the blocking solution, slides were first treated with 20 μg/mL PToV-P4-Fc (esterase active) in blocking buffer for 2 h at RT and then washed with PBS in 0.1% Tween 20 and then PBS (10 min/wash with shaking). Subsequently, diluted protein samples in blocking solution with various concentrations were added to each subarray (both esterase treated and non-treated slides). After incubating the protein samples for 2 h at RT with gentle shaking, the slides were washed with PBS in 0.1% Tween 20 and then PBS (10 min/wash with shaking).” for “shaking.”

SMILES | expression of CD22 ligand on fed cells (human CD22-Fc/Siglec-2) | incorporation on the cell membrane (DMB-HPLC) (BJA-B K20 cells [2]) | binding of hSiglec-9 on glycan microarray [4] | binding of PToV on glycan microarray [5] | stability of the 9-modification towards esterase active PToV [6] | also measured
CC(=O)N[C@H]1[C@H]([C@H](O)[C@H](O)COC(C)=O)OC(O)(C(=O)O)C[C@@H]1O (stereo partly drawn) [Neu5,9Ac2, 9-O-acetyl-N-acetylneuraminic acid] | between the two | showed incorporation |  |  |  | turnover on cell surface (BJA-B K20 cells [1]; 1 mM for two days, then sugar removed, monitored for 4 days with PToV (esterase inactive) probe): faster than that of Neu5Ac9NAc; cell surface incorporation detected with PToV probe (BJA-B K20 cells [1]; 1 mM free sialic acid, three days of feeding): detected on the cell surface
CC(=O)N[C@H]1[C@H]([C@H](O)[C@H](O)COC(C)=O)O[C@@](O[C@H]2[C@@H](O)[C@@H](CO)O[C@@H](O[C@H]3[C@H](O)[C@@H](O)[C@H](OCCCN)O[C@@H]3CO)[C@@H]2O)(C(=O)O)C[C@@H]1O [Neu5,9Ac2α3Galβ4GlcβProNH2] |  |  | observable binding | slightly stronger binding to the 9OAc derivative | esterase lability of 9OAc | loss of the OAc group ([3]; AUS treatment followed by DMB derivatization at low temperature (FIG. 2B)): 1.5%; OAc group lost from the 9-position of Neu5Ac or migrated to 7- and 8-positions ([3]; release of sialic acids with acetic acid, DMB derivatization, HPLC (FIG. 2A)): ~45%; sialic acid de-O-acetylated ([3]; standard blocking condition (ethanolamine in Tris-HCl buffer, pH 9.0)): about 5%; OAc group released ([3]; stock solution after three months at −20° C. and a few freeze-thaw cycles): 4%; loss of OAc ([3]; storage in phosphate buffer (pH 8.4) at room temperature): about 3%
CC(=O)NC[C@@H](O)[C@@H](O)[C@@H]1O[C@@](O[C@H]2[C@@H](O)[C@@H](CO)O[C@@H](O[C@H]3[C@H](O)[C@@H](O)[C@H](OCCCN)O[C@@H]3CO)[C@@H]2O)(C(=O)O)C[C@H](O)[C@H]1NC(C)=O [Neu5Ac9NAcα3Galβ4GlcβProNH2, 3-Aminopropyl O-(5,9-Diacetamido-3,5,9-trideoxy-D-glycero-α-D-galacto-2-nonulopyranosylonic acid)-(2→3)-O-β-D-galactopyranosyl-(1→4)-β-D-glucopyranoside] |  |  | observable binding | prefer binding | stability of 9NAc | 
CC(=O)N[C@H]1[C@H]([C@H](O)[C@H](O)CO)OC(O)(C(=O)O)C[C@@H]1O (stereo partly drawn) [Neu5Ac, N-acetylneuraminic acid] | high expression of CD22 ligand | showed incorporation |  |  |  | 
CC(=O)N[C@H]1[C@H]([C@H](O)[C@H](O)CO)O[C@@](O[C@H]2[C@@H](O)[C@@H](CO)O[C@@H](O[C@H]3[C@H](O)[C@@H](O)[C@H](OCCCN)O[C@@H]3CO)[C@@H]2O)(C(=O)O)C[C@@H]1O [Neu5Acα3Galβ4GlcβProNH2] |  |  | prefers binding |  |  | 
